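96-well plates; 48 h exposure; 5 concentrations. Endpoints by linear interpolation between flanking doses. Not reached: highest tested concentration assigned. TGI: total growth inhibition.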 A value given as a limit tells only on which side of the number the result lay.

Among the test systems are NCI-H23 lung; PC-3 prostate; MOLT-4 leukemia; HT29 colon; COLO 205 colon; HCT-15 colon; BT-549 breast; SNB-75 CNS; EKVX NSCLC; HL-60(TB) leukemia; NCI-H522 lung.
What all share (experiment): inhibition of tumour cell growth, NCI panel, 48 h

For the compound `NC(c1ccccc1)(C(F)(F)F)P1(=O)OC(=O)c2ccccc2O1` (configuration not stated), the TGI with NCI-H23 lung, with PC-3 prostate, with MOLT-4 leukemia, in the assay on HT29 colon, in the assay with COLO 205 colon and with HCT-15 colon was over 100 µM throughout. For the same compound, the TGI in the assay on BT-549 breast, in the assay with SNB-75 CNS and in the assay with EKVX NSCLC was over 100 µM each time.

On to `COC(=O)c1ccccc1C#CCCCOS(C)(=O)=O`, for which the TGI with NCI-H23 lung, in the assay on PC-3 prostate, with MOLT-4 leukemia, with HT29 colon, in the assay on HL-60(TB) leukemia and in the assay with COLO 205 colon was over 10 µM in each case. Besides, the TGI in the assay with HCT-15 colon, in the assay with BT-549 breast and in the assay with EKVX NSCLC was over 10 µM in each case.

Regarding `CCOC(=O)C(NC(=O)CC(C)C)(Nc1ccc(C(F)(F)F)cc1)C(F)(F)F` (configuration not stated), the TGI in the assay on NCI-H522 lung is over 100 µM; in the assay on NCI-H23 lung, over 100 µM; with PC-3 prostate, over 100 µM; in the assay on MOLT-4 leukemia it was over 100 µM; with HT29 colon it was over 100 µM; in the assay with HL-60(TB) leukemia, 59.9 µM. For the same compound, the values for the TGI in the assay on HCT-15 colon, in the assay on SNB-75 CNS and in the assay with EKVX NSCLC were over 100 µM, 60.9 µM and over 100 µM, respectively.

Regarding `O=C1CCC2(CC1CCSc1ccccc1)OCCO2` (configuration not stated), the TGI with NCI-H522 lung, with NCI-H23 lung, in the assay on PC-3 prostate, with MOLT-4 leukemia, in the assay with HT29 colon and with HL-60(TB) leukemia was over 100 µM throughout. The TGI in the assay with COLO 205 colon, in the assay with HCT-15 colon, in the assay on SNB-75 CNS and with EKVX NSCLC was over 100 µM each time.

For the compound `CC(NC1=NCCO1)c1cccc([N+](=O)[O-])c1` (configuration not stated), the TGI in the assay on NCI-H522 lung, in the assay on NCI-H23 lung, with PC-3 prostate, in the assay with MOLT-4 leukemia, in the assay with HT29 colon and with HL-60(TB) leukemia was over 100 µM throughout. For the same compound, the TGI in the assay on COLO 205 colon, with HCT-15 colon, in the assay with SNB-75 CNS and with EKVX NSCLC was over 100 µM each time.

As for `CC(=NCCN(CCN=C(C)c1c(O)cc(C)oc1=O)CCN=C(C)c1c(O)cc(C)oc1=O)c1c(O)cc(C)oc1=O`, the TGI in the assay on NCI-H522 lung, in the assay with PC-3 prostate, in the assay on MOLT-4 leukemia, with HT29 colon, with HL-60(TB) leukemia and in the assay on COLO 205 colon was over 100 µM in each case. Moreover, the TGI with HCT-15 colon, in the assay with SNB-75 CNS and in the assay on EKVX NSCLC was over 100 µM throughout.

Take `O=C(NNc1cn[nH]c(=O)c1Cl)/C(=C/c1ccc2c(c1)OCO2)NC(=O)c1ccccc1`: the TGI in the assay on NCI-H23 lung, in the assay on PC-3 prostate, with MOLT-4 leukemia, in the assay on HT29 colon, with COLO 205 colon and with HCT-15 colon was over 100 µM in each case. Moreover, the results for the TGI in the assay on BT-549 breast, in the assay on SNB-75 CNS and with EKVX NSCLC were 49.1 µM, 86.2 µM and over 100 µM, respectively.

As to `O=c1[nH]c(=O)n(COCc2ccccc2)c2ccc(Br)cc12`, the TGI with MOLT-4 leukemia, in the assay on HT29 colon, with HL-60(TB) leukemia, in the assay with COLO 205 colon, in the assay on HCT-15 colon and in the assay on SNB-75 CNS was over 100 µM each time. For the same compound, the TGI in the assay with EKVX NSCLC was over 100 µM.

On to `C=C(CC(=O)Nc1ccc(C(=O)OC)o1)C(=O)OC`, for which the TGI in the assay with NCI-H522 lung was found to be 38 µM; with NCI-H23 lung, 72.7 µM; in the assay on PC-3 prostate, 58.9 µM; with MOLT-4 leukemia, 47.8 µM; with HT29 colon, 70.2 µM; in the assay with COLO 205 colon, 41.1 µM. Also, the TGI in the assay on HCT-15 colon was 59.1 µM; with SNB-75 CNS, over 100 µM; with EKVX NSCLC it was 45 µM.

For `O=C1CCCC2=C1C(c1ccc3c(c1)OCO3)Nc1ccc3ccccc3c12` (configuration not stated), the TGI with NCI-H522 lung, with NCI-H23 lung, with HT29 colon, in the assay on COLO 205 colon, in the assay with HCT-15 colon and in the assay on BT-549 breast was over 100 µM in each case. Moreover, the TGI in the assay on SNB-75 CNS and with EKVX NSCLC was over 100 µM in each case.

`CCOP(=O)(OCC)/C(=C\N1C(=O)CC(=O)NC1=S)C(=O)OC`: the TGI with NCI-H23 lung, with MOLT-4 leukemia, with HT29 colon, in the assay on HL-60(TB) leukemia, with COLO 205 colon and in the assay with HCT-15 colon was over 100 µM each time. Besides, the TGI in the assay with BT-549 breast, in the assay with SNB-75 CNS and in the assay with EKVX NSCLC was over 100 µM each time.

Turning to `COc1cccc2c1C1(O)C2CCCC12OCCCO2` (configuration not stated), the TGI with NCI-H522 lung, in the assay with NCI-H23 lung, in the assay on MOLT-4 leukemia, in the assay on HT29 colon, with HL-60(TB) leukemia and in the assay on COLO 205 colon was over 100 µM throughout. Besides, the TGI in the assay on HCT-15 colon and in the assay with SNB-75 CNS was over 100 µM throughout.

With `CC(=O)NC1=C(C)C(=O)c2c(nc3n2CCC3O)C1=O` (configuration not stated), the TGI in the assay with NCI-H522 lung is 68.2 µM; in the assay with NCI-H23 lung it was over 89.8 µM; in the assay with MOLT-4 leukemia, 16.6 µM; in the assay with HT29 colon, over 100 µM; with HL-60(TB) leukemia, 44.2 µM; with COLO 205 colon, over 100 µM. For the same compound, the TGI in the assay on HCT-15 colon is over 100 µM; in the assay on SNB-75 CNS, over 100 µM; with EKVX NSCLC, 51.4 µM.

Regarding `CC1CCc2c(sc3ncnc(N/N=C/c4ccc(Cl)c(Cl)c4)c23)C1` (configuration not stated), the TGI with NCI-H522 lung is 21 µM; with NCI-H23 lung it was 79.8 µM; with MOLT-4 leukemia, over 100 µM; in the assay on HT29 colon it was over 100 µM; in the assay with HL-60(TB) leukemia it was over 100 µM; in the assay with COLO 205 colon, 71.6 µM. The TGI with HCT-15 colon was over 100 µM; in the assay with SNB-75 CNS, 61.6 µM; with EKVX NSCLC it was 89.8 µM.

Take `O=c1[nH]c(=O)n(COCc2ccccc2)c2ccc([N+](=O)[O-])cc12`: the TGI in the assay on PC-3 prostate, in the assay with MOLT-4 leukemia, in the assay with HT29 colon, in the assay with HL-60(TB) leukemia, in the assay with COLO 205 colon and in the assay on HCT-15 colon was over 100 µM throughout. Moreover, the TGI in the assay with SNB-75 CNS and with EKVX NSCLC was over 100 µM in each case.
